In paper PMC7576996, “Antiparasitic Behavior of Trifluoromethylated Pyrazole 2-Amino-1,3,4-thiadiazole Hybrids and Their Analogues: Synthesis and Structure-Activity Relationship” (Frontiers in Pharmacology, 2020):

Experiments:
[1] = tested on: promastigote form of Leishmania amazonensis; experiment: Antiproliferative assay, promastigote form of Leishmania amazonensis (XTT, 72 h); format: cell-based; conditions: for SI L-M, selectivity index (Macrophages CC50/L. amazonensis IC50): J774A1 vs promastigotes; for SI L-E, selectivity index (Epithelial CC50/L. amazonensis IC50): LLCMK2 vs promastigotes; for IC50: Leishmania amazonensis, promastigote form, 72 h, mean ± standard deviation, read-out: L. amazonensis IC50
Experimental: (§1) All the novel trifluoromethylated pyrazoles derivatives 2a–f, 3a–f, and 4a–f were evaluated against the promastigote form of L. amazonensis and the epimastigote form of T. cruzi. The results are reported as the concentration causing a 50% inhibition in cell growth (IC50). Additionally, the toxicity of compounds was evaluated against two different cell lines: epithelial cell LLCMK2 and macrophages J774A1. The antiproliferative and cytotoxic activities are shown in Table 2 , as well as the calculated selectivity index (SI).
(§2) 2.4. Antiproliferative activity
(§3) Promastigotes forms of Leishmania amazonensis (strain WHOM/ BR/75/JOSEFA) were
(§4) cultured in Warren medium (brain heart infusion, hemin, and folic acid; pH 7.4) supplemented with
(§5) 10% fetal bovine serum (FBS) at 25 °C. Epimastigote forms of Trypanosoma cruzi (Y strain) were
(§6) cultured in LIT medium (liver infusion tryptose; hemim, and folic acid; pH 7.4) supplemented with
(§7) Cytotoxicity activity was determined in LLCMK2 (epithelial cells of kidney of Macaca
(§8) mulatta) cells and J774A1 macrophages. LLCMK2 (epithelial cells of kidney of Macaca mulatta) cells
(§9) were cultured in Dulbecco’s modified Eagle’s medium (DMEM, pH 7.2) supplemented with 10% FBS
(§10) at 37 °C in a 5% CO2 atmosphere. J774A1 macrophages were cultured in RPMI-1640 (pH 7.2) medium
(§11) supplemented with 10% FBS at 37 °C in a 5% CO2 atmosphere.
(§12) 2.4.2. Dilution of compounds
(§13) Stock solutions of the compounds were prepared in DMSO and then diluted in the respective
(§14) medium. The groups (controls and treated) were tested with DMSO concentrations below 1%, with
(§15) 2.4.3. Antiproliferative assay
(§16) Promastigote forms (1 × 10^6 parasites/mL) were cultured in 96-well plates in the presence and
(§17) absence of different concentrations of compounds diluted in Warren medium supplemented with 10%
(§18) FBS and incubated for 72h. Epimastigote forms (1 × 10^6 parasites/mL) were cultured in 96 -well plates
(§19) in the presence and absence of different concentrations of compounds diluted in LIT medium
(§20) supplemented with 10% FBS and incubated for 96h. After treatment, the parasites were incu bated with
(§21) a solution of 2,3 -bis (2 -methoxy -4-nitro -5-sulfophenyl) -2H-tetrazolium -5-carboxanilide (XTT; 0.5
(§22) mg/mL) and phenazine methanesulfonate activator (PMS; 0.06 mg/mL) in PBS for 4h. Then, the
(§23) absorbance was read in a microplate reader (Bio Tek - Power Wave XS) at 450 nm. The percentage of
(§24) viable parasites was calculated in relation to the control in order to determine the concentration that
(§25) inhibits 50% of the protozoa (IC 50).
(§26) 2.4.4. Cytotoxicity assay
(§27) LLCMK2 cells (2.5 × 10^5 cells/mL) suspension was prepared in DMEM medium supplemented
(§28) with 10% FBS and added to 96-well plates. Then, the plates were incubated at 37 °C in a
(§29) CO2 atmosphere for 24h to obtain confluent cell growth. After incubation, cells were treated or not
(§30) with different concentrations of compounds diluted in DMEM for 72 h. Macrophage (5 × 10^5 cells/mL)
(§31) suspension was prepared in RPMI-1640 medium supplemented with 10% FBS and added to 96-well
(§32) plates. Then, the plates were incubated at 37 °C in a CO2 atmosphere for 24h to obtain confluent cell
(§33) growth. After incubation, cells were treated or not with different concentrations of compounds diluted
(§34) in RPMI-1640 for 48h. After treatment, medium was removed and cells were incubated with MTT (2
(§35) mg/mL) for 4h. Then, DMSO was added for solubilization of the formazan and analyzed with a reading

[2] = Cytotoxicity assay in J774A1 macrophages (MTT, 48 h); format: cell-based; conditions: mouse, pH 7.2, J774A1, 50% inhibition of growth
Experimental: as §1
(§36) 2.4. Antiproliferative activity […]
as §7, §8, §9, §10, §11, §12, §13, §14
(§37) 2.4.3. Antiproliferative assay […]
as §26, §27, §28, §29, §30, §31, §32, §33, §34, §35
(§38) microplate reader (BIO-TEK PowerWave XS spectrophotometer) at 392 nm. The percentage of viable
(§39) cells was calculated in relation to the control to determine the cytotoxic concentration to 50% of the […]

[3] = tested on: epimastigote form of Trypanosoma cruzi; experiment: Antiproliferative assay, epimastigote form of Trypanosoma cruzi (XTT, 96 h); format: cell-based; conditions: for SI T-M, selectivity index (Macrophages CC50/T. cruzi IC50): J774A1 vs epimastigotes; for SI T-E, selectivity index (Epithelial CC50/T. cruzi IC50): LLCMK2 vs epimastigotes; for IC50: Trypanosoma cruzi, epimastigote form, 96 h, mean ± standard deviation, read-out: T. cruzi IC50
Experimental: as §1, §2, §3, §4, §5, §6, §7, §8, §9, §10, §11, §12, §13, §14, §15, §16, §17, §18, §19, §20, §21, §22, §23, §24, §25, §26, §27, §28, §29, §30, §31, §32, §33, §34, §35

[4] = Cytotoxicity assay in LLCMK2 epithelial cells (MTT, 72 h); format: cell-based; conditions: Macaca mulatta, LLCMK2 kidney epithelial cells, pH 7.2, LLCMK2, 50% inhibition of growth
Experimental: as §1, §36, §7, §8, §9, §10, §11, §12, §13, §14, §37, §26, §27, §28, §29, §30, §31, §32, §33, §34, §35, §38, §39

| SMILES | SI L-M, selectivity index (Macrophages CC50/L. amazonensis IC50) [1] | SI L-E, selectivity index (Epithelial CC50/L. amazonensis IC50) [1] | IC50 [1] [µM] | CC50 at 48 h [2] [µM] | SI T-M, selectivity index (Macrophages CC50/T. cruzi IC50) [3] | SI T-E, selectivity index (Epithelial CC50/T. cruzi IC50) [3] | IC50 [3] [µM] | CC50 at 72 h [4] [µM] | melting point [°C] |
| --- | --- | --- | --- | --- | --- | --- | --- | --- | --- |
| CSC(N)=NN=Cc1c(C(F)(F)F)nn(-c2ccccc2)c1-c1ccc([N+](=O)[O-])cc1 [3a] | 12.10 | 9.64 | 18.3 ± 2.4 | 221 ± 3.1 | 9.19 | 7.32 | 24.1 ± 0.8 | 176 ± 5.9 | 190.7 |
| NC(=S)NN=Cc1c(C(F)(F)F)nn(-c2ccccc2)c1-c1ccc([N+](=O)[O-])cc1 [2a, 4-[(2-carbamothioyl-hydrazinylidene)methyl]-3-trifluoromethyl-5-(4-nitrophenyl)-1-phenyl-1H-pyrazole] | 9.10 | 11.33 | 26.7 ± 1.4 | 243 ± 3.6 | 5.32 | 6.62 | 45.7 ± 5 | 303 ± 5.8 | 226.5 |
| Nc1nnc(-c2c(C(F)(F)F)nn(-c3ccccc3)c2-c2ccc(Cl)cc2)s1 [4c, 4-[(2-amino)-1,3,4-thiadiazo-5-yl]-5-(4-chlorophenyl)-3-trifluoromethyl-1-phenyl-1H-pyrazole] | 10.67 | 9.68 | 36.1 ± 2.8 | 385 ± 5.8 | 9.51 | 8.63 | 40.5 ± 3.1 | 350 ± 6.1 | 224.9 |
| Nc1nnc(-c2c(C(F)(F)F)nn(-c3ccccc3)c2-c2ccc(F)cc2)s1 [4b, 4-[(2-amino)-1,3,4-thiadiazo-5-yl]-3-trifluoromethyl-5-(4-fluorophenyl)-1-phenyl-1H-pyrazole] | 6.17 | 3.63 | 40.4 ± 3.2 | 249 ± 6.2 | 5.99 | 3.52 | 41.6 ± 5.3 | 146 ± 5.4 | 243.3 |
| Nc1nnc(-c2c(C(F)(F)F)nn(-c3ccccc3)c2-c2ccc(Br)cc2)s1 [4d, 4-[(2-amino)-1,3,4-thiadiazo-5-yl]-5-(4-Bromophenyl)-3-trifluoromethyl-1-phenyl-1H-pyrazole] | 10.01 | 8.17 | 14.7 ± 0.9 | 147 ± 3.2 | 5.51 | 4.50 | 26.7 ± 1.4 | 120 ± 2.5 | 239.2 |
| CSC(N)=NN=Cc1c(C(F)(F)F)nn(-c2ccccc2)c1-c1ccccc1 [3e] | 7.30 | 4.53 | 44.7 ± 5 | 326 ± 4.5 | 5.23 | 3.25 | 62.4 ± 3.8 | 202 ± 6.2 | 165.65 |
| COc1ccc(-c2c(C=NN=C(N)SC)c(C(F)(F)F)nn2-c2ccccc2)cc1 [3f] | 8.65 | 7.13 | 14.2 ± 1.1 | 123 ± 3.1 | 6.43 | 5.30 | 19.1 ± 0.9 | 101 ± 2.4 | – |
| COc1ccc(-c2c(C=NNC(N)=S)c(C(F)(F)F)nn2-c2ccccc2)cc1 [2f, 4-[(2-carbamothioyl-hydrazinylidene)methyl]-3-trifluoromethyl-5-(4-methoxyphenyl)-1-phenyl-1H-pyrazole] | 8.04 | 6.91 | 22.4 ± 3 | 180 ± 4.7 | 6.06 | 5.21 | 29.7 ± 2.6 | 155 ± 2.6 | 212.65 |
| NC(=S)NN=Cc1c(C(F)(F)F)nn(-c2ccccc2)c1-c1ccc(Br)cc1 [2d, 5-(4-bromophenyl)-4-[(2-carbamothioyl-hydrazinylidene)methyl]-3-trifluoromethyl-1-phenyl-1H-pyrazole] | 8.98 | 7.85 | 18.9 ± 1.1 | 170 ± 7.2 | 5.60 | 4.89 | 30.3 ± 5.2 | 148 ± 6.9 | – |
| Nc1nnc(-c2c(C(F)(F)F)nn(-c3ccccc3)c2-c2ccccc2)s1 [4e, 4-[(2-amino)-1,3,4-thiadiazo-5-yl]-3-trifluoromethyl-1,5-diphenyl-1H-pyrazole] | 6.49 | 5.04 | 52.4 ± 3.5 | 340 ± 5.2 | 5.18 | 4.03 | 65.6 ± 2.9 | 264 ± 3.2 | – |
| CSC(N)=NN=Cc1c(C(F)(F)F)nn(-c2ccccc2)c1-c1ccc(Br)cc1 [3d] | 10.55 | 8.20 | 13.9 ± 0.6 | 147 ± 3.6 | 5.71 | 4.44 | 25.7 ± 2.5 | 114 ± 3.8 | – |
